PubChem BioAssay (NCI)
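Step 1: Grow cells in 96-well plates. Step 2: Expose to compound for 48 hours at 5 concentrations. Step 3: Interpolate endpoints linearly; if unreached, use highest concentration. TGI: concentration producing complete growth inhibition.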

What was measured:
Assay in all cases: NCI-60 cell line screen, 48 h
SNB-19 CNS = tested on: SNB-19 CNS
SNB-75 CNS = tested on: SNB-75 CNS
A549 NSCLC = tested on: A549 NSCLC
UACC-62 melanoma = tested on: UACC-62 melanoma
786-0 renal = tested on: 786-0 renal
SK-MEL-28 melanoma = tested on: SK-MEL-28 melanoma
HOP-92 NSCLC = tested on: HOP-92 NSCLC
MOLT-4 leukemia = tested on: MOLT-4 leukemia
M14 melanoma = tested on: M14 melanoma
EKVX NSCLC = tested on: EKVX NSCLC
SF-295 CNS = tested on: SF-295 CNS
HCC-2998 colon = tested on: HCC-2998 colon
HCT-116 colon = tested on: HCT-116 colon
UO-31 renal = tested on: UO-31 renal
ACHN renal = tested on: ACHN renal
UACC-257 melanoma = tested on: UACC-257 melanoma
HS 578T breast = tested on: HS 578T breast
SK-OV-3 ovarian = tested on: SK-OV-3 ovarian
SF-268 CNS = tested on: SF-268 CNS
NCI/ADR-RES ovarian = tested on: NCI/ADR-RES ovarian
OVCAR-5 ovarian = tested on: OVCAR-5 ovarian
TK-10 renal = tested on: TK-10 renal
SK-MEL-5 melanoma = tested on: SK-MEL-5 melanoma
SK-MEL-2 melanoma = tested on: SK-MEL-2 melanoma
BT-549 breast = tested on: BT-549 breast
HL-60(TB) leukemia = tested on: HL-60(TB) leukemia
NCI-H226 lung = tested on: NCI-H226 lung
MDA-N = tested on: MDA-N
SW-620 colon = tested on: SW-620 colon
MALME-3M melanoma = tested on: MALME-3M melanoma
MCF7 breast = tested on: MCF7 breast
MDA-MB-435 = tested on: MDA-MB-435
HT29 colon = tested on: HT29 colon
LOX IMVI melanoma = tested on: LOX IMVI melanoma
SN12C renal = tested on: SN12C renal
K-562 leukemia = tested on: K-562 leukemia
CCRF-CEM leukemia = tested on: CCRF-CEM leukemia
RXF 393 renal = tested on: RXF 393 renal
KM12 colon = tested on: KM12 colon
DU-145 prostate = tested on: DU-145 prostate
NCI-H522 lung = tested on: NCI-H522 lung
A498 renal = tested on: A498 renal
CAKI-1 renal = tested on: CAKI-1 renal
U251 CNS = tested on: U251 CNS
NCI-H23 lung = tested on: NCI-H23 lung
OVCAR-3 ovarian = tested on: OVCAR-3 ovarian
NCI-H460 lung = tested on: NCI-H460 lung
COLO 205 colon = tested on: COLO 205 colon
T-47D breast = tested on: T-47D breast
OVCAR-8 ovarian = tested on: OVCAR-8 ovarian
OVCAR-4 ovarian = tested on: OVCAR-4 ovarian
HCT-15 colon = tested on: HCT-15 colon
SR leukemia = tested on: SR leukemia
MDA-MB-231 breast = tested on: MDA-MB-231 breast
SF-539 CNS = tested on: SF-539 CNS
IGROV1 ovarian = tested on: IGROV1 ovarian
HOP-62 NSCLC = tested on: HOP-62 NSCLC
RPMI-8226 leukemia = tested on: RPMI-8226 leukemia
PC-3 prostate = tested on: PC-3 prostate

Measured: TGI

COC(=O)[C@@H](NS(=O)(=O)CC12CCC(CC1)C2(C)C)C(C)(C)C
70 µM: MOLT-4 leukemia
not listed: HOP-62 NSCLC | RPMI-8226 leukemia | PC-3 prostate
> 100 µM: all other assays above

Cc1cc2c(c(C(=O)NCC(=O)O)c1)Oc1c(cc(C)cc1C(=O)NCC(=O)O)S2
not listed: UO-31 renal | SK-MEL-5 melanoma | HL-60(TB) leukemia | A498 renal | NCI-H460 lung
> 100 µM: all other assays above

S=C1C(=Nc2ccccc2)N(c2ccccc2)/C(=N\c2cccc[n+]2Cc2ccccc2)N1c1ccccc1
35.4 µM: SN12C renal | NCI-H23 lung
34.9 µM: COLO 205 colon
23.9 µM: HCT-116 colon
42.6 µM: SK-OV-3 ovarian
31.2 µM: NCI-H522 lung
34.8 µM: SNB-19 CNS
25 µM: UACC-62 melanoma | MDA-N
54.9 µM: IGROV1 ovarian
43 µM: HT29 colon
27.4 µM: SF-295 CNS | BT-549 breast
48.4 µM: SF-268 CNS
35.7 µM: SW-620 colon
40.4 µM: NCI-H226 lung
79.7 µM: SR leukemia
42.8 µM: UO-31 renal | MCF7 breast
> 100 µM: MOLT-4 leukemia | HS 578T breast | NCI/ADR-RES ovarian | K-562 leukemia | DU-145 prostate
61.7 µM: T-47D breast
30 µM: 786-0 renal
38.7 µM: OVCAR-8 ovarian
32 µM: KM12 colon
28.2 µM: MALME-3M melanoma
31.6 µM: UACC-257 melanoma
41.9 µM: HOP-92 NSCLC
99.8 µM: TK-10 renal
27.3 µM: RXF 393 renal
55.8 µM: SK-MEL-2 melanoma
52.7 µM: A549 NSCLC
37.3 µM: SK-MEL-28 melanoma
26.7 µM: SK-MEL-5 melanoma
27.5 µM: M14 melanoma
27.2 µM: HCC-2998 colon
45 µM: ACHN renal
87.2 µM: RPMI-8226 leukemia
31.3 µM: MDA-MB-231 breast
29.9 µM: PC-3 prostate
53.8 µM: EKVX NSCLC
22.3 µM: MDA-MB-435
32.7 µM: OVCAR-5 ovarian
55.7 µM: CAKI-1 renal
50 µM: NCI-H460 lung
45.7 µM: HCT-15 colon
54.3 µM: OVCAR-3 ovarian
25.5 µM: SNB-75 CNS
34 µM: SF-539 CNS
29.8 µM: HOP-62 NSCLC

O=c1cc(N2CCOCC2)n2c(ccc3ccccc32)n1
63 µM: MDA-N
not listed: SK-MEL-28 melanoma | DU-145 prostate | NCI-H460 lung | OVCAR-4 ovarian
> 100 µM: all other assays above
